In ChEMBL document CHEMBL4007434, “Indazole-Based Covalent Inhibitors To Target Drug-Resistant Epidermal Growth Factor Receptor” (J Med Chem, 2017):
Activity calls are given as the source filed them. The rule behind the calls is not given here.

Tests used:
[1] = molecular target: T1, Epidermal growth factor receptor (Homo sapiens, UniProt P00533, L858R/T790M)
[2] = molecular target: T2, Epidermal growth factor receptor (Homo sapiens, UniProt P00533); assay type: ADME
[3] = molecular target: T2, Epidermal growth factor receptor; test: Inhibition of wild-type EGFR in human A431 cells assessed as reduction in cell viability after 96 hrs by CellTiterGlo assay; assay type: ADME, cell-based
[4] = molecular target: T3, Epidermal growth factor receptor (Homo sapiens, UniProt P00533, L858R)
[5] = molecular target: T2, Epidermal growth factor receptor; test: Reversible inhibition of wild-type human N-terminal GST-tagged EGFR cytoplasmic domain (669 to 1210 end amino acid residues) expressed in baculovirus expression system using TK peptide substrate preincubated for 2 to 90 mins followed by 6-fold dilution
[6] = Inhibition of KRAS mutant in human H358 cells assessed as reduction in cell viability after 96 hrs by CellTiterGlo assay; assay type: cell-based; conditions: NCI-H358, 96 h
[7] = molecular target: T2, Epidermal growth factor receptor; test: Inhibition of EGF-induced wild-type EGFR phosphorylation in human A431 cells at 10 uM pre-incubated for 1 hr followed by EGF stimulation for 30 mins by Western blot analysis; assay type: cell-based; conditions: 0.5 h
[8] = Inhibition of KRAS mutant in human A431 cells assessed as reduction in cell viability after 96 hrs by CellTiterGlo assay; assay type: cell-based; conditions: A-431, 96 h
[9] = Stability in mouse plasma assessed as compound remaining at 5 uM after 1 hr by LCMS analysis; assay type: ADME, cell-free; conditions: read-out: Stability
Liver [10] = test: Stability in human liver microsomes at 3 uM up to 50 mins by LCMS analysis; assay type: ADME, microsome
[11] = test system: Epidermal growth factor receptor (Homo sapiens), P00533 [L858R,T790M]; test: Inhibition of EGFR L858R/T790M double mutant in human NCI-H1975 cells assessed as reduction in EGF-induced Akt phosphorylation at S473 at 0.1 to 10 uM pre-incubated for 1 hr followed by EGF stimulation for 30 mins by Western blot analysis; assay type: cell-based
Liver [12] = test: Stability in mouse liver microsomes at 3 uM up to 50 mins by LCMS analysis; assay type: ADME, microsome
[13] = molecular target: T2, Epidermal growth factor receptor; test: Ratio of Kinact to Ki for reversible inhibition of wild-type human N-terminal GST-tagged EGFR cytoplasmic domain (669 to 1210 end amino acid residues) expressed in baculovirus expression system
[14] = test system: Epidermal growth factor receptor (Homo sapiens), P00533 [T790M]; test: Binding affinity to EGFR T790M mutant (unknown origin) assessed as covalent adduct formation at 100 uM after 1 hr by ESI-MS analysis
[15] = molecular target: T2, Epidermal growth factor receptor; test: Reversible inhibition of wild-type human N-terminal GST-tagged EGFR cytoplasmic domain (669 to 1210 end amino acid residues) expressed in baculovirus expression system using TK peptide substrate assessed as inactivation constant preincubated for 2 to 90 mins followed by 6-fold dilution
[16] = Stability in human plasma assessed as compound remaining at 5 uM after 1 hr by LCMS analysis; assay type: ADME, cell-free; conditions: read-out: Stability
[17] = test system: Epidermal growth factor receptor (Homo sapiens), P00533 [L858R,T790M,C797S]; test: Inhibition of EGFR L858R/T790M/C797S triple mutant (unknown origin) by HTRF assay
[18] = molecular target: T3, Epidermal growth factor receptor; test: (§1) Reversible inhibition of human N-terminal GST-tagged EGFR L858R mutant cytoplasmic domain (669 to 1210 end amino acid residues) expressed in baculovirus expression system using TK peptide substrate preincubated for 2 to 90 mins followed by 6-fold dilution
[19] = test system: Epidermal growth factor receptor (Homo sapiens), P00533 [L858R,T790M]
[20] = molecular target: T1, Epidermal growth factor receptor; test: (§2) Inhibition of EGF-induced EGFR L858R/T790M double mutant phosphorylation in human NCI-H1975 cells pre-incubated for 1 hr followed by EGF stimulation for 30 mins by Western blot analysis; assay type: cell-based
[21] = test system: Epidermal growth factor receptor (Homo sapiens), P00533 [L858R,T790M]; test: as §2; assay type: cell-based
[22] = test system: Epidermal growth factor receptor (Homo sapiens), P00533 [L858R]
[23] = molecular target: T1, Epidermal growth factor receptor; test: Reversible inhibition of human N-terminal GST-tagged EGFR L858R/T790M double mutant cytoplasmic domain (669 to 1210 end amino acid residues) expressed in baculovirus expression system using TK peptide substrate preincubated for 2 to 90 mins followed by 6-fold dilution
[24] = Ratio of EC50 for wild-type EGFR in human A431 cells to EC50 for EGFR L858R/T790M double mutant in human NCI-H1975 cells
[25] = test system: Epidermal growth factor receptor (Homo sapiens), P00533 [L858R]; test: as §1
[26] = Ratio of EC50 for wild-type EGFR in human A431 cells to EC50 for EGFR delE746_A750 mutant in human HCC827 cells
[27] = molecular target: T1, Epidermal growth factor receptor; test: Inhibition of EGFR L858R/T790M double mutant in human NCI-H1975 cells assessed as reduction in EGF-induced Akt phosphorylation at S473 pre-incubated for 1 hr followed by EGF stimulation for 30 mins by Western blot analysis; assay type: cell-based
[28] = molecular target: T2, Epidermal growth factor receptor; test: Inhibition of EGF-induced wild-type EGFR phosphorylation in human A431 cells pre-incubated for 1 hr followed by EGF stimulation for 30 mins by Western blot analysis; assay type: cell-based
[29] = molecular target: T2, Epidermal growth factor receptor; test: Inhibition of wild-type EGFR in human A431 cells assessed as reduction in EGF-induced Akt phosphorylation at S473 pre-incubated for 1 hr followed by EGF stimulation for 30 mins by Western blot analysis; assay type: cell-based
[30] = Ratio of IC50 for wild-type human N-terminal GST-tagged EGFR cytoplasmic domain (669 to 1210 end amino acid residues) expressed in baculovirus expression system to IC50 for human N-terminal GST-tagged EGFR L858R/T790M double mutant cytoplasmic domain (669 to 1210 end amino acid residues) expressed in baculovirus expression system

| SMILES | IC50 [1] [nM] | IC50 [2] [nM] | EC50 [3] [nM] | IC50 [4] [nM] | other results |
| --- | --- | --- | --- | --- | --- |
| C=CC(=O)Nc1cc(Nc2n[nH]c3cc(-c4cccc(F)c4)ccc23)c(OC)cc1N(C)CCN(C)C | 5 | 5 | 2280 | 1.6 | – |
| C=CC(=O)Nc1cc(Nc2n[nH]c3cc(-c4cn(C)c5ccccc45)ccc23)c(OC)cc1N(C)CCN(C)C | 4.8 | 9.3 | 2210 | 1.5 | Ki [5]: 236 nM; EC50 [6]: 2600 nM; inhibition (INH) [7]: Active; EC50 [8]: 2100 nM; remaining at 1 h, 5 µM [9]: > 90%; Stability (Liver [10]): Stable; inhibition [11]: Active; Stability (Liver [12]): Stable; kinact/KI [13]: 20000 M⁻¹ s⁻¹; Activity [14]: Active; kinact [15]: 0.00467 s⁻¹; remaining at 1 h, 5 µM [16]: > 75%; inhibition [17]: inactive; Ki [18]: 57 nM; Kinact [19]: 0.37 min⁻¹; EC50 [20]: 100 to 1000 nM; inhibition [21]: Dose-dependent effect; Kinact [22]: 0.14 min⁻¹; Ki [23]: 149 nM |
| C=CC(=O)Nc1cc(Nc2n[nH]c3ccc(-c4cccc5ccccc45)cc23)c(OC)cc1N(C)CCN(C)C | 2.7 | 33 | 2780 | 12 | – |
| CCC(=O)Nc1cc(Nc2n[nH]c3ccccc23)ccc1N(C)CCN(C)C | 9730 | > 10000 | > 30000 | 8470 | – |
| C=CC(=O)Nc1cc(Nc2n[nH]c3cc(-c4ccc(N(C)C)cc4)ccc23)c(OC)cc1N(C)CCN(C)C | 72 | 387 | 1410 | 80 | – |
| C=CC(=O)Nc1cc(Nc2n[nH]c3ccc(-c4ccc(F)cc4)cc23)c(OC)cc1N(C)CCN(C)C | < 1 | 6.8 | 2070 | 2 | inhibition (INH) [7]: Active; Ratio EC50 [24]: 3 - 4; remaining at 1 h, 5 µM [9]: > 90%; Stability (Liver [10]): Stable; inhibition [11]: Active; Stability (Liver [12]): Stable; Activity [14]: Active; remaining at 1 h, 5 µM [16]: > 75%; inhibition [17]: inactive; inhibition [25]: Active; EC50 [20]: 100 to 1000 nM; inhibition [21]: Dose-dependent effect; Ratio EC50 [26]: 3 - 4 |
| C=CC(=O)Nc1cc(Nc2n[nH]c3cc(-c4cccc(C(F)(F)F)c4)ccc23)c(OC)cc1N(C)CCN(C)C | 38 | 16 | 3540 | 4.5 | – |
| C=CC(=O)Nc1cc(Nc2n[nH]c3ccccc23)c(OC)cc1N(C)CCN(C)C | 462 | 9270 | 10400 | 3350 | – |
| C=CC(=O)Nc1cc(Nc2n[nH]c3cc(-c4ccncc4)ccc23)c(OC)cc1N(C)CCN(C)C | 5 | 30 | 3940 | 14 | remaining at 1 h, 5 µM [9]: > 90%; Stability (Liver [10]): Stable; Stability (Liver [12]): Stable; Activity [14]: Active; remaining at 1 h, 5 µM [16]: > 75%; inhibition [17]: inactive; inhibition [25]: Active |
| C=CC(=O)Nc1cc(Nc2n[nH]c3cc(-c4cncc5ccccc45)ccc23)c(OC)cc1N(C)CCN(C)C | 6 | 2.8 | 2820 | 1.1 | EC50 [8]: 659 nM |
| CCC(=O)Nc1cc(Nc2n[nH]c3ccccc23)c(OC)cc1N(C)CCN(C)C | > 10000 | > 10000 | > 30000 | > 10000 | – |
| C=CC(=O)Nc1cc(Nc2n[nH]c3cc(-c4cccnc4)ccc23)c(OC)cc1N(C)CCN(C)C | 15 | 97 | 5670 | 29 | – |
| C=CC(=O)Nc1cc(Nc2n[nH]c3ccccc23)ccc1N(C)CCN(C)C | 2630 | > 10000 | 5970 | > 10000 | – |
| C=CC(=O)Nc1cc(Nc2n[nH]c3ccc(-c4ccc5ccccc5c4)cc23)c(OC)cc1N(C)CCN(C)C | 1.1 | 8.1 | 1770 | 2.2 | Ki [5]: 147 nM; EC50 [27]: 1 to 10 µM; remaining at 1 h, 5 µM [9]: > 90%; Stability (Liver [10]): Stable; Stability (Liver [12]): Stable; kinact/KI [13]: 20000 M⁻¹ s⁻¹; Activity [14]: Active; kinact [15]: 0.003 s⁻¹; remaining at 1 h, 5 µM [16]: > 75%; inhibition [17]: inactive; Ki [18]: 105 nM; EC50 [28]: 1 to 10 µM; Kinact [19]: 0.5 min⁻¹; EC50 [20]: 1000 to 10000 nM; Kinact [22]: 0.14 min⁻¹; EC50 [29]: 1 to 10 µM; Ki [23]: 28 nM; Ratio IC50 [30]: 8 |
| C=CC(=O)Nc1cc(Nc2n[nH]c3cc(-c4ccc(F)cc4)ccc23)c(OC)cc1N(C)CCN(C)C | 10 | 26 | 2170 | 8.5 | – |
| C=CC(=O)Nc1cc(Nc2n[nH]c3cc(-c4ccc5ccccc5c4)ccc23)c(OC)cc1N(C)CCN(C)C | 85 | 312 | 1650 | 25 | – |
| C=CC(=O)Nc1cc(Nc2n[nH]c3cc(-c4cccc(N(C)C)c4)ccc23)c(OC)cc1N(C)CCN(C)C | 22 | 48 | 3470 | 10 | – |
